The values that follow come from US20070299084A1, “Indole Derivatives Useful for Treating Resistance to Antitumor Agents” (NIKEM RESE S.R.L., priority 2004, published 2007).

For series [1], the system named is SK-N-BE(2) cells (human neuroblastoma). Nature of the series: Antiproliferative activity, 48 h treatment, ATPlite luminescence assay, SK-N-BE(2). Particulars: Homo sapiens, SKNBE2, 48 h, read-out: Antiproliferative activity (IC50 ± S.D., μM) SK-N-BE(2). Type of series: cell-based. How it is done:
SH-SY5Y and SK-N-BE(2): maintained in HAM-F12 medium+10% FCS.
(§1) 24 hours after seeding, an aliquot (10 μl) of the drug at the various concentrations is added (for each concentration there are 3 replicates). After 48 hours of treatment the antiproliferative effect is evaluated with a luminescence assay (Perkin Elmer Life Sciences ATPlite):
(§2) 50 μl of a lysis solution are added to each well followed by an equal volume of a solution containing luciferase and D-luciferin. The ATP present in all the metabolically active cells brings about the transformation reaction of D-luciferin, catalysed by luciferase, to produce a luminescent signal as described in the following scheme: ATP+D-luciferin+O2→Oxyluciferin+AMP+PPi+CO2+Light
(§3) The luminescence produced (expressed in counts per second, CPS) is measured by means of a microplate scintillation analyzer (Perkin Elmer Life Sciences Top Count).
(§4) Percentage inhibition of luminescence in the treated cells compared to the control is calculated; concentration-response curves are then analysed using Grafit v.5.0.
A general note: Cellular ATP, detected with luciferase, serves as a proxy for viable cell number.

Series [2] has as its system HT29/Mit human colon carcinoma xenografts. Nature of the series: HT29/Mit human colon carcinoma xenografts, antitumor activity. The series is classed as in vivo, athymic Swiss nude mice. Particulars: HT29/Mit xenograft, p.o.; topotecan 15 mg/Kg every 4 days for 3 administrations; compound of example 2 30 mg/kg; alone or combined. How it is done: Female athymic Swiss nude mice (8-10 weeks old) (Charles River, Calco, Italy) were used for the experiments. The animals were maintained at constant temperature and humidity, and were allowed to eat and drink freely. The experimental protocol was approved by the Ethics Committee for Animal Experimentation of the Istituto Nazionale Tumori of Milan.
The antitumour effectiveness of the compounds of the invention under discussion was tested on athymic mouse models implanted with HT29 and/or HT29/Mit tumour cells: this latter variety is highly resistant to topotecan treatment. The tumour cells were implanted in vivo via subcutaneous injection of 10^7 cells taken from in vitro cultures. Randomized groups of five mice with bilateral subcutaneous tumours were used for the experiment.
Topotecan or other known antitumour agents (dissolved in distilled water or an appropriate solvent) and the compounds of the invention (dissolved in Cremophor EL:ethanol:saline solution in the proportions 5:5:90, or in an appropriate solvent) were administered orally from the third day, alone or in combination, in agreement with a treatment scheme selected in an appropriate manner depending on the type of compound to be studied.
The weight (or volume) of the tumour in treated mice compared to controls is represented graphically on the y-axis against time (x-axis).
Background: In xenograft studies the graft and the host belong to different species.

In series [3] the test system is LoVo/Dx cells (doxorubicin-resistant human colon carcinoma, P-glycoprotein overexpression). Nature of the series: Antiproliferative activity, 72 h treatment, SRB assay, LoVo/Dx. Type of series: cell-based. An excerpt:
LoVo and LoVo/Dx (line obtained by prolonged exposure to doxorubicin and characterised by overerexpression of P-glycoprotein, which confers resistance to doxorubicin): maintained in HAM-F12 medium+10% FCS.
Background: In SRB staining, fixed cells bind dye roughly in proportion to their protein.

Series [4] relates to HT29 cells (human colon carcinoma). Nature of the series: Antiproliferative activity, 72 h treatment, SRB assay, HT29. The series is classed as cell-based.
Procedure: HT29 and HT29/Mit (line obtained by prolonged exposure to mitoxantrone, and characterised by overerexpression of BCRP, which confers cross resistance to topotecan, irinotecan and to its metabolite SN38): maintained in McCoy 5A medium+10% FCS.
The cells (HT29 and HT29/Mit:. 40,000 cells/ml, LoVo, LoVo/Dx and HCT116: 50,000 cells/ml) are seeded in 100 μl of the respective culture media in 96-well plates. 24 hours after seeding, an aliquot (10 μl) of drug at the various concentrations is added. In the samples in which the effect of the combination of two compounds is to be tested the inhibitor is added immediately before the cytotoxic. For each dose or combination of doses/drugs the effect of the treatment is determined in 4-8 replicates.
After 72 hours of treatment the antiproliferative effect is evaluated using the sulforhodamine B (SRB) assay: the cells are fixed by adding 25 μl of 50% TCA to each well and left for 1 hour at 4° C. After washing them with water and allowing them to dry, 100 μl of 0.4% SRB in 1% acetic acid are added and left for 30 minutes at room temperature. After 4 washes in 1% acetic acid, they are left to dry, then the dye fixed by the proteins is dissolved under basic conditions with 100 μl 10 mM cold Tris and the solution is read using a spectrophotometer at 550 nm.
Percentage cell growth is calculated as the optical density of treated samples compared to the optical density of controls (untreated cells).
The nature of series [5]: Drug tolerability in H460 tumor-bearing mice (lethal toxicity). Particulars: athymic Swiss nude, mouse, in vivo, 8 weeks. How it is done: The effects of the compounds of the invention and/or topotecan on the growth of primary tumors and spontaneous lung metastasis were tested in mice inoculated s.c. in the right flank with H460 ascitic tumor cells (2×10^6/mouse). Each control or drug-treated group included 9-11 mice. The s.c. tumor growth was followed by biweekly measurements of tumor diameters with a Vernier caliper. Drug treatment was delivered orally, for 8 weeks, from day 1. Topotecan was delivered at the dose of 1 mg/kg and compounds of the invention were delivered at the dose of 30 mg/kg; in the combination group the compounds of the invention were delivered almost 1 hour after topotecan treatment. Control mice were solvent-treated orally in parallel with drug treatments.
Drug efficacy was assessed as mean percentage tumor weight inhibition in drug-treated versus control mice expressed as tumor weight inhibition % (TWI %)=100−(mean tumor weight treated/mean tumor weight control×100), evaluated during and after drug treatment. Drug tolerability was assessed in tumor-bearing mice as either lethal toxicity, i.e., any death in treated mice occurring before any control death, or percentage body weight loss (BWL %)=100−(body weight on day x/body weight on day 1×100), where x represents a day after or during the treatment period.

Series [6] concerns HepG2 cells (human hepatic carcinoma). Nature of the series: Antiproliferative activity, 48 h treatment, ATPlite luminescence assay, HepG2. Type of series: cell-based. Particulars: Homo sapiens, HepG2, read-out: Antiproliferative activity (IC50 ± S.D., μM) HepG2. How it is done:
HepG2: maintained in EMEM medium+10% FCS.
as §1, §2, §3, §4

Series [7] concerns HT29 line. Nature of the series: Apoptosis experiment (Tunel). Type of series: cell-based, human. How it is done: 1.5×10^6 cells/sample are seeded. After 24 hours the cells are treated with the compounds for 48 or 72 hours. At the end of the treatment, the cells are detached with Trypsin/EDTA, washed in PBS (phosphate buffered solution) and incubated for 45 minutes at room temperature in 1 ml of 4% paraformaldehyde.
The cells are then washed with PBS and resuspended in 100 μl of permeabilizing solution (0.1% triton in 0.1% sodium citrate) for 2 minutes in ice. After a further wash, the cells are resuspended in 50 μl of Tunel reaction mix (Boehringer Mannheim) and left at 37° C. for 1 hour in the dark. After washing in PBS, the cells are resuspended in PBS and analysed by cytofluorimeter or examined by fluorescence microscope.

Series [8] deals with A2780 cells (human ovarian carcinoma). Nature of the series: Antiproliferative activity, 48 h treatment, ATPlite luminescence assay, A2780. Type of series: cell-based. Particulars: Homo sapiens, A2780, 48 h, read-out: Antiproliferative activity (IC50 ± S.D., μM) A2780. How it is done:
as §1, §2, §3, §4

[9] abbreviates: cell line not stated in the sentence (follows LoVo/DX).

Regarding `CCOc1cc(C(=O)NC2CC(C)(C)NC(C)(C)C2)ccc1-c1cc2cc(Cl)c(Cl)cc2[nH]1` [Example 2], the IC50 amounted to 3.7 ± 0.2 µM in series [1]; 3 ± 1.3 µM in series [3] (Homo sapiens, LoVo/DX, 72 h, read-out: Antiproliferative activity (IC50 ± S.D., μM) LoVo/Dx); 1 ± 0.1 µM in series [4] (Homo sapiens, HT-29, 72 h, read-out: Antiproliferative activity (IC50 ± S.D., μM) HT-29); 2 ± 0.1 µM in series [6]; 1.9 ± 0.1 µM in series [8]. Also, the “Inhibition of tumour growth” value in series [2] is “poorly effective”. In series [3] (LoVo/DX variant (MDR phenotype), compared with LoVo), the “Interaction with SN38” value is listed as “even more evident”. For the same compound, in series [3] (setting [9]), the Interaction with doxorubicin entry is listed as “Synergistic interactions”. Moreover, in series [3] (setting [9]), the Interaction with taxol result is “Synergistic interactions”. The “Effect on antiproliferative activity of topotecan” value in series [4] (HT29 model, subtoxic and subactive concentrations (<1 μM) of compound of example 2) is listed as “enhanced antiproliferative activity of topotecan”. The “Antiproliferative activity in the human tumour cell lines used (summary of Table 1)” value in series [4] (all lines: 72 hours (HT29, HT29/Mit, LoVo, LoVo/DX, HCT116) or 48 hours (HepG2, SHSY-5Y, SK-N-BE(2), A2780)) is “high antiproliferative potency”. In addition, the “Tox/Tot (any death in treated mice occurring before any control mice)” value in series [5] is 0/10. The Induction of apoptosis result in series [7] is “high level of apoptosis”.
